Assay results from US10149911B2, “Pharmaceutical composition containing hydroxamic acid derivative or salt thereof” (TOYAMA CHEMICAL CO., LTD., priority 2014, dated 2018).

Legend:
[1] = test system: Pseudomonas aeruginosa clinical isolate (S-2838 strain); test: Mouse model with pulmonary infection by multidrug-resistant Pseudomonas aeruginosa; assay type: in vivo; conditions: cyclophosphamide-treated male ICR mice, S-2838 strain intranasal, 25 mg/kg
Method: The mice used were male ICR SPF mice (4.5 weeks old at the time of infection: 5 individuals per group). In order to achieve a transient compromised state, cyclophosphamide was intraperitoneally administered at a dose of 200 mg/kg to each mouse 4 days before injection.
(§1) To prepare a bacterial inoculum solution, a Pseudomonas aeruginosa clinical isolate (S-2838 strain) was suspended in sterile saline.
Infection was induced by the inoculation of 0.05 mL of the inoculum solution (approximately 10^5 CFU/mouse) to each mouse intranasally. […] The numbers of bacterial colonies of the next day of the infection in the lungs were recorded, and an average thereof was calculated.

[2] = test system: multidrug-resistant Pseudomonas aeruginosa clinical isolate (S-2838 strain); test: Defense against mouse systemic infection using multidrug-resistant Pseudomonas aeruginosa; assay type: in vivo; conditions: male ICR mice, S-2838 strain i.p., 25 mg/kg
Method: The mice used were male ICR SPF mice (4 weeks old: 5 individuals per group).
To prepare a bacterial inoculum solution, a multidrug-resistant Pseudomonas aeruginosa clinical isolate (S-2838 strain) cultured overnight at 37° C. on a Mueller-Hinton agar plate was cultured for 5 hours in a cation-adjusted Mueller-Hinton medium and then diluted 10-fold with a 10% mucin/phosphate buffer solution to prepare the inoculum solution.
Infection was induced by the intraperitoneal inoculation of 0.5 mL of the inoculum solution (approximately 10^6 CFU/mouse) to each mouse. […] Three days after the infection, the number of survivors was recorded.

[3] = test system: Pseudomonas aeruginosa clinical isolate (S-2838 strain); test: Mouse model with urinary tract infection by multidrug-resistant Pseudomonas aeruginosa; assay type: in vivo; conditions: female ICR mice, S-2838 strain via urethra, 12.5 mg/kg
Method: The mice used were female ICR SPF mice (5 weeks old: 5 individuals per group).
as §1
Infection was induced by the inoculation of 0.2 mL of the inoculum solution (approximately 10^3 CFU/mouse) through the urethra of each mouse. […] The numbers of bacterial colonies of the next day of the infection in the kidneys were recorded, and an average thereof was calculated.

[4] = Solubility test in 10% CD or CD derivative solution; assay type: physicochemical; conditions: thermodynamic from solid, room temperature
Method: To 5 mL of a 10% CD or CD derivative solution, about 100 mg of Compound A monohydrate was added, and stirred at room temperature for 24 hours. To the solutions in which αCD, HPαCD, DMβCD and methyl-β-cyclodextrin were used, about 100 mg of Compound A monohydrate was added after 6 hours. After centrifugation (3000 rpm, 10 minutes), the supernatant was filtered with a filter, and the solubility was measured by the HPLC method.

SMILES	decrease in the intrapulmonary viable cell count compared to the control group [1]	mice surviving 3 days after the bacterial inoculation [2]	decrease in the intrarenal viable cell count compared to the control group [3]	solubility at 24 h ([4]; 10% DMβCD solution, aqueous with cosolvent or surfactant or cyclodextrin, 10% DM β CD solution)	solubility at 24 h ([4]; 10% HPαCD solution, aqueous with cosolvent or surfactant or cyclodextrin, 10% HP α CD solution)	solubility at 24 h ([4]; 10% HPβCD solution, aqueous with cosolvent or surfactant or cyclodextrin, 10% HP β CD solution)	solubility at 24 h ([4]; 10% HPγCD solution, aqueous with cosolvent or surfactant or cyclodextrin, 10% HP γ CD solution)	solubility at 24 h ([4]; 10% SBEβCD solution, aqueous with cosolvent or surfactant or cyclodextrin, 10% SBE β CD solution)	solubility at 24 h ([4]; 10% αCD solution, aqueous with cosolvent or surfactant or cyclodextrin, 10% α CD solution)	solubility at 24 h ([4]; 10% βCD solution, aqueous with cosolvent or surfactant or cyclodextrin, 10% β CD solution)	solubility at 24 h ([4]; 10% γCD solution, aqueous with cosolvent or surfactant or cyclodextrin, 10% γ CD solution)	solubility at 24 h ([4]; aqueous with cosolvent or surfactant or cyclodextrin, 10% 2,3,6-Tri-O-methyl-β-cyclodextrin solution)	solubility at 24 h ([4]; aqueous with cosolvent or surfactant or cyclodextrin, 10% 6-O-α-maltosyl-β-cyclodextrin solution)	solubility at 24 h ([4]; aqueous with cosolvent or surfactant or cyclodextrin, 10% Hydroxyethyl-β-cyclodextrin solution)	solubility at 24 h ([4]; aqueous with cosolvent or surfactant or cyclodextrin, 10% Methyl-β-cyclodextrin solution)	solubility at 24 h ([4]; water, None (no CD or CD derivative))
CNC(=O)[C@@](C)(C(=O)NO)N(C)C(=O)c1ccc(C#Cc2ccc([C@H](O)CO)cc2)cc1 [Compound A, (2S)-2-((4-((4-((1S)-1,2-dihydroxyethyl)phenyl)ethynyl)benzoyl)(methyl)amino)-N-hydroxy-N′,2-dimethylmalonamide]	≥ 2 log CFU/lung	≥ 60%	≥ 2 log CFU/kidney													
CNC(=O)[C@@](C)(C(=O)NO)N(C)C(=O)c1ccc(C#Cc2ccc([C@H](O)CO)cc2)cc1 [Compound A monohydrate, (2S)-2-((4-((4-((1S)-1,2-dihydroxyethyl)phenyl)ethynyl)benzoyl)(methyl)amino)-N-hydroxy-N′,2-dimethylmalonamide]				16.6 mg/mL	25.7 mg/mL	11.6 mg/mL	8.8 mg/mL	8.9 mg/mL	30.2 mg/mL	5.9 mg/mL	14.4 mg/mL	4.7 mg/mL	10 mg/mL	11.9 mg/mL	17.5 mg/mL	0.2 mg/mL
